# Results as given in patent US20090192097A1, “Synergistic Herbal Composition from Bacopa Species for Management of Neurodegenerative Disorders and a Process of Preparation Thereof” (priority 2006, published 2009).
# Columns and labels:
# albino Swiss mice [1] = test: Passive avoidance test in mice; assay type: in vivo, mouse; conditions: compared to the vehicle control; BacoMind 40, 60 and 80 mg/kg p.o. 7 days; piracetam 100 mg/kg i.p.; scopolamine 0.3 mg/kg i.p.
# Procedure: (§1) Forty two albino Swiss mice (20-22 g) of either sex obtained from National Toxicology Centre, Pune were used for the study. The animals were acclimatized for a week and maintained under standard laboratory conditions, given free access to feed (Source: Laboratory prepared) and water, ad libitum.
# Six albino Swiss mice of either sex were randomly allotted to each group. Group I served as the vehicle control. Group II, III and IV received BacoMind™ orally at the doses of 40, 60 and 80 mg/kg for 7 days. Piracetam was administered to group V (100 mg/kg, i.p, single dose, on 7th day 20 min before first trial) and served as the reference standard control. Group VI was administered with scopolamine (0.3 mg/kg, i.p, single dose, on 7th day 20 min before first trial) and served as the amnesia control. Group VII was administered both with BacoMind™ (60 mg/kg, p.o, for 7 days) and scopolamine (0.3 mg/kg, i.p, single dose, on 7th day 30 min after BacoMind™ treatment). Mice were placed individually on the electric grid and allowed to explore for one minute. A stimulus of 20 V with AC current of 5 mA was given and latency to reach SFZ was recorded for three consecutive times and considered as basal reading. After 1 h of the first trial, each animal was placed on the electric grid again and the latency to reach SFZ and the mistakes (descents) the animal made in 15 min were recorded and considered as parameters for acquisition and retention respectively.
# albino Swiss mice [2] = test: Elevated plus maze (EPM) test in mice; assay type: in vivo, mouse; conditions: scopolamine 0.3 mg/kg i.p. single dose, compared to the vehicle control
# Procedure: as §1
# Six albino Swiss mice of either sex were randomly allotted to each group. Group I served as the vehicle control. […] Piracetam was administered to group V (100 mg/kg, i.p, single dose on 7th day, 30 min before recording transfer latency) and served as the reference standard control. Group VI was administered with scopolamine (0.3 mg/kg, i.p, single dose on 7th day, 30 min before recording transfer latency) and served as the amnesia control group. […] The mice were placed individually at the end of open arm of the EPM facing away from the center. The time taken by the mouse to move into the enclosed arm was noted as transfer latency (TL). The mice were treated with the test substance/drugs as shown in the study design. […] After determination of the TL, mice were allowed to explore the maze for 2 min and then transferred to their home cages. The TL was again measured after 24 h i.e on […]. The TL was expressed as inflexion ratio.
Structure (SMILES),latency to reach SFZ (albino Swiss mice [1]),number of mistakes in 15 min (albino Swiss mice [1]),inflexion ratio (albino Swiss mice [2])
"NC(=O)CN1CCCC1=O [piracetam, Piracetam]",significantly decreased,significantly decreased,–
CN1[C@@H]2C[C@@H](OC(=O)[C@H](CO)c3ccccc3)C[C@H]1[C@@H]1O[C@@H]12 [scopolamine],significant increase,–,significant decrease
